Measurements published in patent US9624238B2, “4H-thieno[3,2-C]chromene-based inhibitors of Notum Pectinacetylesterase and methods of their use” (Lexicon Pharmaceuticals, Inc., priority 2011, dated 2017).

How the values were obtained:
[1] = target: T1, human notum pectinacetyltransferase (Homo sapiens, UniProt Q6P988); test: Reporter assay (CellSensor LEF/TCF-bla FreeStyle 293F cells, Wnt3a and notum conditioned media); format: cell-based; settings: class symbols
T1 construct: made in house; unpurified conditioned medium used
T1 sequence (Q6P988 20-496): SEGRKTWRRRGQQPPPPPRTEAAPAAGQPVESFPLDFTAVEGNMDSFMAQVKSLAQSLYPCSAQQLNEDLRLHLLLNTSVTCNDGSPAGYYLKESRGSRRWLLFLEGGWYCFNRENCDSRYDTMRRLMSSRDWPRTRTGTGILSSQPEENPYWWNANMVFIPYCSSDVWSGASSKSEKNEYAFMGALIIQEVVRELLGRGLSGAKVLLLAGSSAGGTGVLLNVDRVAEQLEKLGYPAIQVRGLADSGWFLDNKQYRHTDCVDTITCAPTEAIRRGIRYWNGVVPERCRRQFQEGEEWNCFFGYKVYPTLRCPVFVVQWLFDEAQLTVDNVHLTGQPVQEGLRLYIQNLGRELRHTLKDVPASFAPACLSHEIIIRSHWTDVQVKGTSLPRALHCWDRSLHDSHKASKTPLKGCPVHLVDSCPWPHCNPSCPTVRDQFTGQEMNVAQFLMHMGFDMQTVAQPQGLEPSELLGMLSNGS
Method: Plasmid containing human notum pectinacetyltransferase in pcDNA3.1(+) vector was transfected into HEK (293 cells and clones were selecting by growing in presence of 400 ug/mL of G418. The clone containing highest expression of human notum pectinacetyltransferase in the conditioned media was maintained for all future activity assays. L cells overexpressing and secreting Wnt3a into the conditioned media were purchased from ATCC.
The assay protocol was as follows. […] The cell growth medium consisted of DMEM with 10% Dialyzed FBS, 5 μg/ml Blasticidin (Invitrogen, R210-01), 0.1 mM NEAA, 25 mM HEPES and 1×GPS. Cells were then trypsinized by first rinsing with PBS, followed by addition of 5 mL of trypsin and incubation of plates at room temperature for two minutes. A total of 10 mL of assay media (Opti-MEM, plus 0.5% dialyzed FBS, 0.1 mM NEAA, 1 mM sodium pyruvate, 10 mM HEPES, 1×GPS) was then added per 15 cm plate. Cells were counted and suspended at 0.75 million cells per mL. […] After incubation of cells at 37° C. for 3 hours, 10 μL of 30 mM LiCl in assay medium was added per well, followed by incubation at 37° C. for another 3 hours. […] Ten μL of the Wnt3a/notum pentinacetyltransferase mixture was then transferred from Greiner plates to each well of the 384-well plates containing the CellSensor cells.

[2] = target: T1, human notum pectinacetyltransferase; test: Binding assay (OPTS esterase substrate, fluorimetric); format: biochemical
Method: Plasmid containing human notum pectinacetyltransferase in pcDNA3.1(+) vector was transfected into HEK (293 cells and clones were selecting by growing in presence of 400 ug/mL of G418. Condition media from these cells was used for the assay.

[3] = given as numeric bound above the legend's highest class
[4] = given as a numeric bound above the legend's range

| SMILES | EC50 [1] | IC50 ([2]; class symbols) | IC50 [2, 3] | IC50 [2, 4] |
| --- | --- | --- | --- | --- |
| O=C1CCN(C(=O)c2cc3c(s2)-c2ccc(Cl)c(Cl)c2OC3)C1 | < 50 nM | < 100 nM | – | – |
| CCOC(=O)c1cc2c(s1)-c1cc(C)cc(F)c1CC2 | < 50 nM | < 1000 nM | – | – |
| O=C(O)c1cc2c(s1)-c1cc(Cl)c(C(F)(F)F)cc1OC2 | < 50 nM | < 1000 nM | – | – |
| O=C(O)c1cc2c(s1)-c1cccc(Cl)c1OC2 | < 50 nM | < 1000 nM | – | – |
| NC(=O)c1cc2c(s1)-c1cc(F)cc(F)c1SC2 | < 50 nM | < 50 nM | – | – |
| O=C(O)C1CCN(C(=O)c2cc3c(s2)-c2c(F)ccc(F)c2SC3)C1 (stereo not drawn) | < 50 nM | < 100 nM | – | – |
| O=C(O)c1cc2c(s1)-c1cc(Cl)ccc1OCC2 | < 100 nM | < 100 nM | – | – |
| COc1ccc2c(c1Cl)CCc1cc(C(=O)NCCc3nnn[nH]3)sc1-2 | < 50 nM | < 1000 nM | – | – |
| Cc1cc(C)c2c(c1)-c1sc(C(N)=O)cc1CO2 | < 50 nM | < 2000 nM | – | – |
| N#CC1CCN(C(=O)c2cc3c(s2)-c2cccc(F)c2CC3)C1 (stereo not drawn) | < 50 nM | < 100 nM | – | – |
| O=C(O)c1cc2c(s1)-c1cc(F)c(Cl)cc1SC2 | < 50 nM | < 100 nM | – | – |
| O=C(O)c1cc2c(s1)-c1cc(Br)cc(Cl)c1OC2 | < 50 nM | < 50 nM | – | – |
| CC1Cc2cc(C(=O)O)sc2-c2ccccc21 (stereo not drawn) | < 50 nM | < 1000 nM | – | – |
| COCCNC(=O)c1cc2c(s1)-c1ccccc1CCC2 | < 500 nM | – | > 2000 nM | – |
| NC(=O)c1cc2c(s1)-c1cccc(F)c1OC2 | < 50 nM | < 50 nM | – | – |
| CCC1Cc2cc(C(=O)O)sc2-c2c(F)ccc(F)c21 (stereo not drawn) | < 50 nM | < 1000 nM | – | – |
| CC1(C)Cc2cc(C(=O)O)sc2-c2cc(F)c(F)cc21 | < 50 nM | < 2000 nM | – | – |
| O=C(O)c1cc2c(s1)-c1cc(F)cc(F)c1CC2 | < 50 nM | < 1000 nM | – | – |
| CC1Cc2cc(C(N)=O)sc2-c2c(F)ccc(F)c21 (stereo not drawn) | < 50 nM | < 50 nM | – | – |
| O=C(O)c1cc2c(s1)-c1cccc(F)c1OC2 [6-fluoro-4H-thieno[3,2-c]chromene-2-carboxylic acid] | < 50 nM | < 1000 nM | – | – |
| O=C(O)c1cc2c(s1)-c1ccc(Cl)c(Cl)c1SC2 | < 50 nM | < 100 nM | – | – |
| O=C(O)c1cc2c(s1)-c1cc(F)cc(F)c1[S+]([O-])C2 (stereo not drawn) [6,8-difluoro-4H-thieno[3,2-c]thiochromene-2-carboxylic acid 5-oxide] | < 500 nM | – | > 2000 nM | – |
| N#CC1CCN(C(=O)c2cc3c(s2)-c2ccc(Cl)c(F)c2OC3)C1 (stereo not drawn) | < 50 nM | < 1000 nM | – | – |
| COc1ccc2c(c1)-c1sc(C(=O)O)cc1CS2(=O)=O | < 500 nM | – | – | > 2000 nM |
| NC(=O)c1cc2c(s1)-c1ccc(Cl)cc1OC2 | < 50 nM | < 100 nM | – | – |
| O=C(NCCn1ccnc1)c1cc2c(s1)-c1cccc(F)c1CC2 | < 500 nM | – | – | > 2000 nM |

| SMILES | EC50 [1] | IC50 ([2]; class symbols) | IC50 [2, 3] | IC50 [2, 4] |
| --- | --- | --- | --- | --- |
| O=C(NCCO)c1cc2c(s1)-c1ccccc1CC2 [N-(2-hydroxyethyl)-4,5-dihydronaphtho[1,2-b]thiophene-2-carboxamide] | < 50 nM | < 1000 nM | – | – |
| CC1Cc2cc(C(=O)O)sc2-c2cc(F)cc(F)c21 (stereo not drawn) | < 50 nM | < 50 nM | – | – |
| Cc1cc(Cl)cc2c1OCc1cc(C(=O)O)sc1-2 | < 50 nM | < 1000 nM | – | – |
| COc1cccc2c1S(=O)(=O)Cc1cc(C(=O)O)sc1-2 | < 1000 nM | – | – | > 2000 nM |
| NC(=O)c1cc2c(s1)-c1cccc(Cl)c1SC2 | < 50 nM | < 1000 nM | – | – |
| NC(=O)c1cc2c(s1)-c1cc(F)ccc1OCC2 | < 50 nM | < 50 nM | – | – |
| COc1cccc2c1OCc1cc(C(=O)O)sc1-2 | < 500 nM | – | – | > 2000 nM |
| CCOC(=O)c1cc2c(s1)-c1ccccc1CC2 | < 50 nM | < 2000 nM | – | – |
| COc1ccccc1C1CN(C(=O)c2cc3c(s2)-c2ccc(Cl)c(F)c2OC3)CC1C(=O)O (stereo not drawn) | < 50 nM | < 1000 nM | – | – |
| COc1cc(F)c2c(c1)-c1sc(C(=O)O)cc1CC2 | < 50 nM | < 1000 nM | – | – |
| NC(=O)c1cc2c(s1)-c1cccc(Cl)c1CC2 | < 50 nM | < 1000 nM | – | – |
| COc1ccc2c(c1Br)CCc1cc(C(N)=O)sc1-2 | < 50 nM | < 50 nM | – | – |
| O=C(O)c1cc2c(s1)-c1cc(F)c(F)cc1S(=O)(=O)C2 | < 500 nM | < 2000 nM | – | – |
| NC(=O)c1cc2c(s1)-c1ccc(Cl)c(F)c1SC2 | < 50 nM | < 50 nM | – | – |
| CC1Cc2cc(C(=O)O)sc2-c2cc(F)ccc21 (stereo not drawn) | < 50 nM | < 50 nM | – | – |
| O=C(O)c1cc2c(s1)-c1ccc(F)cc1OC2 | < 50 nM | < 2000 nM | – | – |
| NC(=O)c1cc2c(s1)-c1c(F)ccc(F)c1SC2 [6,9-difluoro-4H-thieno[3,2-c]thiochromene-2-carboxamide] | < 50 nM | < 50 nM | – | – |
| O=C(O)c1cc2c(s1)-c1c(F)ccc(Cl)c1OC2 | < 50 nM | < 1000 nM | – | – |
| NC(=O)c1cc2c(s1)-c1cc(F)cc(F)c1OC2 | < 50 nM | < 50 nM | – | – |
| O=C(O)c1cc2c(s1)-c1cc(F)cc(F)c1S(=O)(=O)C2 [6,8-difluoro-4H-thieno[3,2-c]thiochromene-2-carboxylic acid 5,5-dioxide] | < 500 nM | < 1000 nM | – | – |
| N#Cc1cccc2c1CCc1cc(C(N)=O)sc1-2 | < 50 nM | < 1000 nM | – | – |
| O=C(NCCN1CCOCC1)c1cc2c(s1)-c1ccc(Cl)c(F)c1OC2 | < 500 nM | – | > 2000 nM | – |
| CC1(C)Cc2cc(C(=O)O)sc2-c2ccc(Cl)cc21 | < 50 nM | < 2000 nM | – | – |
| O=C(O)c1cc2c(s1)-c1cc(F)c(F)cc1SC2 | < 50 nM | < 100 nM | – | – |
| O=C(O)c1cc2c(s1)-c1c(F)ccc(F)c1OC2 | < 50 nM | < 100 nM | – | – |
| O=C(O)c1cc2c(s1)-c1ccsc1CC2 | < 500 nM | < 50 nM | – | – |

Next, values leading:

| EC50 [1] | IC50 ([2]; class symbols) | IC50 [2, 3] | IC50 [2, 4] | SMILES |
| --- | --- | --- | --- | --- |
| < 50 nM | < 50 nM | – | – | O=C(O)c1cc2c(s1)-c1cccc(F)c1CC2 |
| < 50 nM | < 100 nM | – | – | O=C(c1cc2c(s1)-c1c(F)ccc(F)c1SC2)N1CC[C@H](F)C1 |
| < 50 nM | < 1000 nM | – | – | Cc1cc(F)cc2c1SCc1cc(C(=O)O)sc1-2 |
| < 100 nM | < 2000 nM | – | – | COc1ccc2c(c1)OCc1cc(C(=O)O)sc1-2 |
| < 100 nM | < 1000 nM | – | – | CCOC(=O)c1cc2c(s1)-c1ccc(Cl)c(F)c1SC2 |
| < 50 nM | < 1000 nM | – | – | O=C(O)C1CN(C(=O)c2cc3c(s2)-c2ccc(Cl)c(F)c2OC3)CC1c1cccs1 (stereo not drawn) |
| < 100 nM | – | – | > 2000 nM | CC(C)c1ccc2c(c1)-c1sc(C(=O)O)cc1CO2 |
| < 50 nM | < 2000 nM | – | – | Cc1ccc(C)c2c1OCc1cc(C(=O)O)sc1-2 |
| < 50 nM | < 50 nM | – | – | Cc1ccc(Cl)c2c1-c1sc(C(N)=O)cc1CO2 |
| < 50 nM | < 100 nM | – | – | CC1Oc2ccc(F)cc2-c2sc(C(N)=O)cc21 (stereo not drawn) |
| < 50 nM | < 2000 nM | – | – | O=C(O)c1cc2c(s1)-c1cc(F)c(Cl)cc1S(=O)(=O)C2 |
| < 100 nM | < 100 nM | – | – | NC(=O)c1cc2c(s1)-c1cc(Cl)ccc1OCC2 |
| < 50 nM | < 100 nM | – | – | COc1ccc2c(c1Cl)CCc1cc(C(=O)N3CCC(C#N)C3)sc1-2 (stereo not drawn) |
| < 500 nM | < 1000 nM | – | – | CC1(C)Oc2c(F)cc(F)cc2-c2sc(C(N)=O)cc21 |
| < 50 nM | < 1000 nM | – | – | O=C(O)C1CCN(C(=O)c2cc3c(s2)-c2cc(F)cc(F)c2SC3)C1 (stereo not drawn) |
| < 50 nM | < 100 nM | – | – | CNC(=O)c1cc2c(s1)-c1ccccc1CC2 |
| < 50 nM | < 50 nM | – | – | O=C(O)c1cc2c(s1)-c1ccccc1OCC2 |
| < 50 nM | < 50 nM | – | – | NC(=O)c1cc2c(s1)-c1cc(F)ccc1OC2 |
| < 50 nM | < 1000 nM | – | – | O=C(O)c1cc2c(s1)-c1cc(Cl)cc(Br)c1OC2 |
| < 1000 nM | < 1000 nM | – | – | O=C(O)c1cc2c(s1)-c1ccccc1CCC2 |
| < 100 nM | < 2000 nM | – | – | COC(=O)CNC(=O)c1cc2c(s1)-c1cc(C)cc(C)c1CC2 |
| < 50 nM | < 1000 nM | – | – | Cc1cc2c(cc1C)-c1sc(C(=O)O)cc1CO2 |
| < 50 nM | < 50 nM | – | – | O=C(O)c1cc2c(s1)-c1ccc(Cl)c(Cl)c1OCC2 |
